Measurements taken from paper PMC11997890, “In Vivo and In Vitro Pharmacokinetic Studies of a Dual Topoisomerase I/II Inhibitor” (ACS Pharmacology & Translational Science, 2025).
Where “and” joins values, the source holds several entries; their conditions need not be identical. Identical values can stand only once. Like-named read-outs stand apart in the source and are kept apart here. Each block holds one molecule with its values, some of them ahead of it.

Legend:
[1] = In vivo plasma pharmacokinetics after i.v. and p.o. administration of P8-D6; parameters: species or system Sprague–Dawley rats; details: for AUC(0-t): read-out: AUC0–10 h (converted)
Procedure: The plasma concentration–time profiles and pharmacokinetic parameters of P8-D6 after p.o. and i.v. administration are presented in Figure B and Table .
Compartment models were used to calculate the pharmacokinetic parameters and plasma curves.
Since a pure drug solution of P8-D6 was administered in this study, liberation (release from the dosage form) could be neglected; therefore, first-order kinetics were assumed. […] Based on our in vivo results and assumptions, P8-D6 is first homogeneously distributed in the central compartment after application before being transferred to the peripheral compartment. Elimination occurs via the central compartment. The substance transport into, out of, and between the different compartments is characterized by the macro rate constants.
Starting with the i.v. administration, a two-compartment pharmacokinetic model was chosen that considers the biexponential decay of a fast initial first-order distribution and a slow terminal first-order elimination phase (supplied as Figure S4A,C). By this method, a fictitious initial P8-D6 plasma concentration c 0/i.v. of 4.43 μM at the time of injection was calculated (A (3.27 μM) + B (1.16 μM)). This fictitious plasma concentration corresponds to ∼1% (3.95 μmol in 8.8 mL of the theoretical plasma concentration and matches the plasma protein binding of P8-D6 of about 99% (Figure A). Based on the dose and c 0, a central V c of 0.891 L was calculated. Since the macro rate constant for distribution is considerably greater (37-fold) than the one for elimination, the elimination is the rate-determining step according to first-order kinetics.
To cope with the overlapping curves of absorption and elimination after p.o. administration, compartmental models are used (supplied as Figure S4B,D). However, since only two to three data points exist (depending on the definitive start time of the elimination) during the elimination and distribution phase (120–600 min), no differentiation between these two phases can be described by our data (as shown by the residual method in Figure S4B). Therefore, a one-compartment model according to the Bateman function with both first-order invasion and elimination rates was assumed for the p.o. administration of P8-D6 (supplied as Figure S4D). […] A fictitious initial plasma concentration, c 0/p.o. = 2.21 μM, was calculated.
(§1) Effects of the diet were reduced by fasting the rats overnight prior to P8-D6 application. Blood samples were taken at 5, 15, 30, 60, 120, 180, 300, 360, and 600 min after i.v. application or 30, 60, 90, 120, 240, and 600 min after p.o. application. Immediately afterward, the plasma was collected by centrifugation at 2000 g for 10 min. The rats were housed in metabolic cages to collect the urine in specially attached containers. Urine and feces samples were collected every 2 h. The rats were euthanized by CO2 inhalation. The harvested organs (kidney, spleen, lung, liver, and colon) were weighed and submerged in liquid nitrogen. All collected samples were stored at −80 °C until analysis.
50 μL of plasma was mixed with 100 μL of an ice-cold mixture of acetonitrile/methanol (2:1) and stirred in the vortex for 5 min. The suspension was centrifuged at 15000 g for 10 min, and 50 μL of the supernatant was injected into the HPLC (chapter Chromatographic Conditions). Calibration/control samples were prepared the same way with plasma samples collected from equal Sprague–Dawley rats from nonpharmacological studies. For calibration, the matrix was spiked with a defined concentration of the analyte. Final concentrations ranged from 0 μM to 5 μM. Triple determinations were performed and prepared on each respective day. LoD: 0.02 μM, LoQ: 0.05 μM (plasma).
For data analysis and statistics, Microsoft Excel 2019 and GraphPad Prism (version 10.2, GraphPad Software Inc., San Diego, California), commercially available software, were used. All data are expressed either as mean ± SEM or ± SD. […]

[2] = In vivo tissue distribution of P8-D6 and metabolites; parameters: species or system Sprague–Dawley rats
Procedure: Another part of this in vivo study was to identify in vivo metabolites and determine the tissue distribution of P8-D6 (study preparation scheme supplied as Figure S5). […] P8-D6 N-oxide reached c max/p.o. of 0.054 μM at 30 min, and all following results were below the limit of quantification (LoQ).
P8-D6 and P8-D6 mono each constituted about 20–30% of the detected derivatives. The extent of metabolism was, to a certain degree, organ-dependent (spleen > colon > lungs > kidney > liver). The highest concentration of P8-DO was found in the spleen at 8.7 nmol/g and the lowest in the liver at 4.5 nmol/g.
as §1
100 μL of each tissue homogenate/PNS was mixed with 200 μL of an ice-cold mixture of acetonitrile/methanol (2:1) and stirred in the vortex for 5 min. The suspension was centrifuged at 20000 g for 10 min, and 50 μL of the supernatant was injected into the HPLC. The samples from six mice per group were analyzed. Calibration/control samples were prepared the same way with organ samples collected from equal Sprague–Dawley rats from nonpharmacological studies prepared according to chapter Tissue/Enzymes. For calibration, the matrix was spiked with a defined concentration of the analyte. Final concentrations ranged from 0 to 10 nmol/g. Triple determinations were performed and prepared on each respective day. LoD: 0.81 nmol/g (spleen), 0.33 nmol/g (liver), 0.48 nmol/g (lungs), 1.14 nmol/g (colon), 0.38 nmol/g (kidney); LoQ: 2.69 nmol/g (spleen), 1.09 nmol/g (liver), 1.59 nmol/g (lungs), 3.80 nmol/g (colon), 1.28 nmol/g (kidney).

[3] = male, Sprague-Dawley, rat, plasma, iv, 10 mg/kg, after i.v. administration of P8-D6 10 mg/kg BW, read-out: c max/i.v. of metabolite in plasma
[4] = male, Sprague-Dawley, rat, plasma, po, 50 mg/kg, after p.o. administration of P8-D6 50 mg/kg BW, read-out: c max/p.o. of metabolite in plasma
[5] = spleen, liver, lungs, kidney, colon after P8-D6

Cmax [1, 3]: 114 nM
Cmax [1, 4]: 341 nM
proportion of all derivatives detected in tissue [2, 5]: 20–30%
SMILES: CNCCOc1nc2c3cnccc3cc(-c3cc(OC)c(OC)c(OC)c3)c2c2ccncc12 [P8-D6 mono]

Cmax [1, 3]: 228 nM
Cmax [1, 4]: 54 nM
detection in tissue [2, 5]: no P8-D6 N-oxide was observed at all
SMILES: COc1cc(-c2cc3ccncc3c3nc(OCC[N+](C)(C)[O-])c4cnccc4c23)cc(OC)c1OC [P8-D6 N-oxide]

SMILES: COc1cc(-c2cc3ccncc3c3nc(OCCN(C)C)c4cnccc4c23)cc(OC)c1OC [P8-D6, 6-(N,N-dimethyl-2-aminoethoxy)-11-(3,4,5-trimethoxyphenyl)-pyrido[3,4-c][1,9]-phenanthroline]
CLi.v. ([1]; i.v.): 6.34 mL/min
apparent volume of distribution ([1]; i.v.): 57.69 L/m^2
fictitious plasma concentration as share of theoretical plasma concentration ([1]; i.v.): ~1%
macro rate constant for distribution greater than for elimination ([1]; i.v.): 37 fold
c min ([1]; i.v. 10 mg/kg BW, plasma, 10 mg/kg): 0.35 µM and 0.35 ± 0.05 µM
CL ([1]; i.v., total body surface of 0.0357 m^2): 10.66 L/(h m^2)
Macro rate constant ß ([1]; i.v., two-compartment model): 0.002 min^–1
Macro rate constant α ([1]; i.v., two-compartment model): 0.073 min^–1
coefficient A ([1]; i.v., two-compartment model): 3.27 µM
coefficient B ([1]; i.v., two-compartment model): 1.16 µM
clearance ([1]; male, Sprague-Dawley, rat, plasma, iv, 10 mg/kg body weight): 6.33 mL/min
half-life ([1]; male, Sprague-Dawley, rat, plasma, iv, 10 mg/kg body weight, i.v., read-out: Initial t 1/2): 0.158 h
half-life ([1]; male, Sprague-Dawley, rat, plasma, iv, 10 mg/kg body weight, i.v., read-out: Terminal t 1/2): 5.78 h
Vd ([1]; male, Sprague-Dawley, rat, plasma, iv, 10 mg/kg body weight, i.v., read-out: V d): 2.06 L and 9.36 L/kg
Vd ([1]; male, Sprague-Dawley, rat, plasma, iv, 10 mg/kg body weight, i.v., read-out: V ss): 2.95 L and 13.4 L/kg
half-life ([1]; male, Sprague-Dawley, rat, plasma, iv, 10 mg/kg body weight, i.v., read-out: plasma half-life t 1/2 (converted)): 5.8 h
C0 ([1]; male, Sprague-Dawley, rat, plasma, iv, 10 mg/kg body weight, i.v., at the time of injection, two-compartment model, read-out: fictitious initial plasma concentration c 0/i.v.): 4430 nM
Cmax ([1]; male, Sprague-Dawley, rat, plasma, iv, 10 mg/kg, i.v. 10 mg/kg BW, plasma, read-out: c max): 3950 ± 420 nM
Tmax ([1]; male, Sprague-Dawley, rat, plasma, iv, 10 mg/kg, i.v. 10 mg/kg BW, read-out: t max): 0 h
AUC(0-t) ([1]; male, Sprague-Dawley, rat, plasma, iv, i.v. 10 mg/kg BW): 7.49 µM·h
bioavailability ([1]; male, Sprague-Dawley, rat, plasma, iv, i.v. 10 mg/kg BW, read-out: Bioavailability): 100%
bioavailability ([1]; male, Sprague-Dawley, rat, plasma, oral, 50 mg/kg body weight, p.o. 50 mg/kg BW vs i.v. 10 mg/kg BW, read-out: Oral bioavailability): 21.5%
half-life ([1]; male, Sprague-Dawley, rat, plasma, po, 50 mg/kg body weight, p.o., read-out: Terminal t 1/2): 8.64 h
half-life ([1]; male, Sprague-Dawley, rat, plasma, po, 50 mg/kg body weight, p.o., read-out: plasma half-life t 1/2 (converted)): 8.6 h
k el ([1]; male, Sprague-Dawley, rat, plasma, po, 50 mg/kg body weight, p.o., one-compartment model, read-out: Macro rate constant k e): 2.17e-05 s⁻¹
C0 ([1]; male, Sprague-Dawley, rat, plasma, po, 50 mg/kg body weight, p.o., one-compartment model, read-out: fictitious initial plasma concentration c 0/p.o.): 2210 nM
Cmax ([1]; male, Sprague-Dawley, rat, plasma, po, 50 mg/kg, p.o. 50 mg/kg BW, compartment model, read-out: c max (calculated)): 1250 nM
Tmax ([1]; male, Sprague-Dawley, rat, plasma, po, 50 mg/kg, p.o. 50 mg/kg BW, compartment model, read-out: t max (calculated) (converted)): 1.77 h
Cmax ([1]; male, Sprague-Dawley, rat, plasma, po, 50 mg/kg, p.o. 50 mg/kg BW, plasma, read-out: c max (measured)): 1160 nM
Tmax ([1]; male, Sprague-Dawley, rat, plasma, po, 50 mg/kg, p.o. 50 mg/kg BW, read-out: t max (measured) (converted)): 2 h
AUC(0-t) ([1]; male, Sprague-Dawley, rat, plasma, po, p.o. 50 mg/kg BW): 8.03 µM·h
CL ([1]; p.o.): 0.24 L/h
CLp.o. ([1]; p.o.): 3.96 mL/min
apparent volume of distribution ([1]; p.o.): 82.92 L/m^2
c min ([1]; p.o. 50 mg/kg BW, plasma, 50 mg/kg): 0.59 µM and 0.59 ± 0.06 µM
Macro rate constant k a ([1]; p.o., one-compartment model): 0.031 min^–1
CL ([1]; p.o., total body surface of 0.0357 m^2): 6.65 L/(h m^2)
V ss ([1]; total body surface of 0.0357 m^2): 82.69 L/m^2
proportion of all derivatives detected in tissue [2, 5]: 20–30%

detection in plasma ([1]; after administration of P8-D6): no P8-DO was detected
concentration in tissue ([2]; liver (lowest)): 4.5 nmol/g
concentration in tissue ([2]; spleen (highest)): 8.7 nmol/g
proportion of all derivatives detected in tissue [2, 5]: about 50%
SMILES: COc1cc(-c2cc3ccncc3c3[nH]c(=O)c4cnccc4c23)cc(OC)c1OC [P8-DO]
